Assay results taken from ChEMBL document CHEMBL4043168, “The design and SAR of a novel series of 2-aminopyridine based LRRK2 inhibitors” (Bioorg Med Chem Lett, 2017).

Tests used:
[1] = molecular target: T1, Serine/threonine-protein kinase LATS1 (Homo sapiens) (UniProt O95835); assay: Inhibition of LATS1 conserved Lys2 (DIKPDNILIDR) in human PBMC at 1 uM
T1 sequence (whole entry): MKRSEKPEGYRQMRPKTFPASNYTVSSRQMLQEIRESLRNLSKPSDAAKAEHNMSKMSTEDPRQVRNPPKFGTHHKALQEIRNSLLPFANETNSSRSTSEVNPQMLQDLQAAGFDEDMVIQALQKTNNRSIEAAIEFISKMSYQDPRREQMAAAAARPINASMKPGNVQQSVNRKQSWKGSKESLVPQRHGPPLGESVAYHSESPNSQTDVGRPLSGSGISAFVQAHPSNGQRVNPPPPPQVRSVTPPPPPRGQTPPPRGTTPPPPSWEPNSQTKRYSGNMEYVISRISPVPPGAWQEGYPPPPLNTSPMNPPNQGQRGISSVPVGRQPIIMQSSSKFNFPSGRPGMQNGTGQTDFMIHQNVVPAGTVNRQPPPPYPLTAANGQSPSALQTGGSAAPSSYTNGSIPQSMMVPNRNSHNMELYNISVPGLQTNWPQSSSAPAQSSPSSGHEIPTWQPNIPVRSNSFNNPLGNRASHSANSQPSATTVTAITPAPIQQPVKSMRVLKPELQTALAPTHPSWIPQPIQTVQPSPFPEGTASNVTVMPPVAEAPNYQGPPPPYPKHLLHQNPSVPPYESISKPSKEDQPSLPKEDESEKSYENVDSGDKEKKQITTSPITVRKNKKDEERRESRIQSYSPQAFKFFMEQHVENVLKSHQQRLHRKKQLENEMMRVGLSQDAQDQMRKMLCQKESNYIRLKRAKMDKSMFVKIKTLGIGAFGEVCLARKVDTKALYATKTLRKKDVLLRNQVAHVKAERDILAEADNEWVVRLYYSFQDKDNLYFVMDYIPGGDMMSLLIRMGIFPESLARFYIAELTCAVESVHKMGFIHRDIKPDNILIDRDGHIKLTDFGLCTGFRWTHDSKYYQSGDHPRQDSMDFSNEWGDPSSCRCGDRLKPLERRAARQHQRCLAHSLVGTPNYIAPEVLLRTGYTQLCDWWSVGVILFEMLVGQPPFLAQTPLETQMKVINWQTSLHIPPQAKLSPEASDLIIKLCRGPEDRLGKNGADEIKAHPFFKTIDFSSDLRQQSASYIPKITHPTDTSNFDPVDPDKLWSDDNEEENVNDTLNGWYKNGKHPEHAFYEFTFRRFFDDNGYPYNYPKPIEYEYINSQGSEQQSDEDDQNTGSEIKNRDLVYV

[2] = molecular target: Myosin light chain kinase, smooth muscle (Homo sapiens) (UniProt Q15746); assay: Inhibition of smMLCK conserved Lys2 (QGIVHLDLKPENIMCVNK) in human PBMC at 1 uM
Sequence of Myosin light chain kinase, smooth muscle (Homo sapiens) (Q15746 whole entry): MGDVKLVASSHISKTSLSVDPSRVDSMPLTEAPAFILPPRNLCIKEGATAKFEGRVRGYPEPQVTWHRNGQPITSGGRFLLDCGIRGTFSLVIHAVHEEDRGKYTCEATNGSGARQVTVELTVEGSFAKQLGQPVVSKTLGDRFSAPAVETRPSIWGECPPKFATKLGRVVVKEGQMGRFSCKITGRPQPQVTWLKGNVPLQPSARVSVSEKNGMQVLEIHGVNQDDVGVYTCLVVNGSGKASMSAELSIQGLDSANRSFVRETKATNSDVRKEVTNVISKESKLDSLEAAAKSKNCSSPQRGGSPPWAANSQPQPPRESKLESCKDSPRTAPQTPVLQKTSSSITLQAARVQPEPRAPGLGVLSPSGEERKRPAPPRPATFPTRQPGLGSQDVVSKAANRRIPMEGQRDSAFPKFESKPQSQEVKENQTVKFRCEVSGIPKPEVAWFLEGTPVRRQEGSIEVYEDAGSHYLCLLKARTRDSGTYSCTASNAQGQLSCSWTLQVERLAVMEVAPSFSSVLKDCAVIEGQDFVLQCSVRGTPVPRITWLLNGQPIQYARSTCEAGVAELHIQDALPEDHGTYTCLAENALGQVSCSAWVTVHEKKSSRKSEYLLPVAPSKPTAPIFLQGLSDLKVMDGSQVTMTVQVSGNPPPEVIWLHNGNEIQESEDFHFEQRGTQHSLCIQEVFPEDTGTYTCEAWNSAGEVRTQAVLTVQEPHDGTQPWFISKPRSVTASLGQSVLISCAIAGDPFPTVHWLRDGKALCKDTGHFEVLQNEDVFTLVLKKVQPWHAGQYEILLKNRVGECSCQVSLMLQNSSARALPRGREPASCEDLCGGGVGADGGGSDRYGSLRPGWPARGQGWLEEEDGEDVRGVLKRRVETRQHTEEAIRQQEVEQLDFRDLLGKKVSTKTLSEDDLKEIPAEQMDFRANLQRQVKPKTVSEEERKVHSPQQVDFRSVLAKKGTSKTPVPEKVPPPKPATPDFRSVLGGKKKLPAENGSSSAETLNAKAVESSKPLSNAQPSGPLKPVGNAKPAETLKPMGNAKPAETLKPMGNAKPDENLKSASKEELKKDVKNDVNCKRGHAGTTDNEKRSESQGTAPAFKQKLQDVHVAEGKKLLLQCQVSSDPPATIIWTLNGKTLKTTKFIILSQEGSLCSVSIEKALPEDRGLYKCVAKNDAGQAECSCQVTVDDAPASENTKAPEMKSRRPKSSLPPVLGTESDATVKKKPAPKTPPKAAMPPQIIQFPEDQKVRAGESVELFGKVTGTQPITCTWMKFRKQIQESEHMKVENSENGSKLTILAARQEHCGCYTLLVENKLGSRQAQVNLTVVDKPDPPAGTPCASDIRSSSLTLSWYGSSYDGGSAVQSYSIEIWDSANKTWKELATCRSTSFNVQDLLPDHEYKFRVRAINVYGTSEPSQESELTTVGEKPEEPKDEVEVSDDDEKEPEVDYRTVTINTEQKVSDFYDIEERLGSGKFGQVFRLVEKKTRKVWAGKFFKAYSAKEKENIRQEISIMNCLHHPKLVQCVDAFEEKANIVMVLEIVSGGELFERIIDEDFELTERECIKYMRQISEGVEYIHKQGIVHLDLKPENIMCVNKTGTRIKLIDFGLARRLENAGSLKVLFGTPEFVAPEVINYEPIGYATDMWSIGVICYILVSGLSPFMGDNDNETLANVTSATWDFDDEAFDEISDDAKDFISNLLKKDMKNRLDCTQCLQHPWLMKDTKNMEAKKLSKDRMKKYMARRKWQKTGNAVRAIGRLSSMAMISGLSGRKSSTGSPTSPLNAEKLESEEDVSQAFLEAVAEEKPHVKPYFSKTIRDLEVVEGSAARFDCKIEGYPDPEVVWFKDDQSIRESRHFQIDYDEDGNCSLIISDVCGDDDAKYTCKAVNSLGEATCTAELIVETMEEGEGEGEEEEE

[3] = molecular target: Serine/threonine-protein kinase/endoribonuclease IRE1 (Homo sapiens) (UniProt O75460); assay: Inhibition of IRE1 conserved Lys2 (DLKPHNILISMPNAHGK) in human PBMC at 0.1 uM
Sequence of Serine/threonine-protein kinase/endoribonuclease IRE1 (Homo sapiens) (O75460 19-977 limits assumed): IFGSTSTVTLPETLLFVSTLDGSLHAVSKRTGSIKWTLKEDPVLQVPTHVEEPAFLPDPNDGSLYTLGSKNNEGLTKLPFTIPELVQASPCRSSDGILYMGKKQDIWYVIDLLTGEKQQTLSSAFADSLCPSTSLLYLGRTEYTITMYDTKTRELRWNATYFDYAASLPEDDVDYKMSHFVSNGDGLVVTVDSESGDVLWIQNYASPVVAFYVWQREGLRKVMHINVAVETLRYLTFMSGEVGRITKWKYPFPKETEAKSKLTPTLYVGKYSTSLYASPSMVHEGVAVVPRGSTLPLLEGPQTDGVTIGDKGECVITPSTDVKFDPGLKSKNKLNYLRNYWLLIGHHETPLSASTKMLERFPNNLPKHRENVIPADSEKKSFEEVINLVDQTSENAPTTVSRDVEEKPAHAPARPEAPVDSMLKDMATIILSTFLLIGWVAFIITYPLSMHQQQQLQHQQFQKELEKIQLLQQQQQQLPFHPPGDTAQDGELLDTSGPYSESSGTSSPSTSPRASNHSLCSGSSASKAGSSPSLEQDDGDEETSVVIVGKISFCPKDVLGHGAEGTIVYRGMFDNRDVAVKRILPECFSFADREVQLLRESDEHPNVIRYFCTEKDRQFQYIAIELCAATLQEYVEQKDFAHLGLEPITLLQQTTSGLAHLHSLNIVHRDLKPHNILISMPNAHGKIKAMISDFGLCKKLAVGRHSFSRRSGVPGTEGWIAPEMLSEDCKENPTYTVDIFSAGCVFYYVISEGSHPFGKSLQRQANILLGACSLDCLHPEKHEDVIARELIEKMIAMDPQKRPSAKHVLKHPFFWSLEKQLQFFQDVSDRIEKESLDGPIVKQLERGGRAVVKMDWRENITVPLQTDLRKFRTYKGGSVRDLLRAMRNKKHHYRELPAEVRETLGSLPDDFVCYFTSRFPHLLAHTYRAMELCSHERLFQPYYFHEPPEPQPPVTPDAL

[4] = molecular target: Serine/threonine-protein kinase 25 (Homo sapiens) (UniProt O00506); assay: Inhibition of YSK1 conserved Lys2 (DIKAANVLLSEQGDVK) in human PBMC at 0.1 uM
Sequence of Serine/threonine-protein kinase 25 (Homo sapiens) (O00506 whole entry, looked up, canonical isoform): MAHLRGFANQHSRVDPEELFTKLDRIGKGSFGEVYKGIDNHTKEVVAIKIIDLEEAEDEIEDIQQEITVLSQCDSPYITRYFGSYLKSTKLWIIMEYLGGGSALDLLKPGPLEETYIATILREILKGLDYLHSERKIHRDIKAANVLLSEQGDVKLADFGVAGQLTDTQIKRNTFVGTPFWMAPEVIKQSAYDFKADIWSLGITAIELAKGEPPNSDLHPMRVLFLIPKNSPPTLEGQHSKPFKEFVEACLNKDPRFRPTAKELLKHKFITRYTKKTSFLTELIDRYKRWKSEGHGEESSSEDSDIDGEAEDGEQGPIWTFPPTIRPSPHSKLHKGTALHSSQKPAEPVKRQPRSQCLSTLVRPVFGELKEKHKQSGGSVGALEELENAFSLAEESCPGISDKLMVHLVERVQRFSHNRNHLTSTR

[5] = molecular target: T2, Phosphatidylinositol 4,5-bisphosphate 3-kinase catalytic subunit delta isoform (Homo sapiens) (UniProt O00329); assay: Inhibition of PIK3CD ATP binding site (VNWLAHNVSKDNRQ) in human PBMC at 0.1 uM
T2 sequence (whole entry): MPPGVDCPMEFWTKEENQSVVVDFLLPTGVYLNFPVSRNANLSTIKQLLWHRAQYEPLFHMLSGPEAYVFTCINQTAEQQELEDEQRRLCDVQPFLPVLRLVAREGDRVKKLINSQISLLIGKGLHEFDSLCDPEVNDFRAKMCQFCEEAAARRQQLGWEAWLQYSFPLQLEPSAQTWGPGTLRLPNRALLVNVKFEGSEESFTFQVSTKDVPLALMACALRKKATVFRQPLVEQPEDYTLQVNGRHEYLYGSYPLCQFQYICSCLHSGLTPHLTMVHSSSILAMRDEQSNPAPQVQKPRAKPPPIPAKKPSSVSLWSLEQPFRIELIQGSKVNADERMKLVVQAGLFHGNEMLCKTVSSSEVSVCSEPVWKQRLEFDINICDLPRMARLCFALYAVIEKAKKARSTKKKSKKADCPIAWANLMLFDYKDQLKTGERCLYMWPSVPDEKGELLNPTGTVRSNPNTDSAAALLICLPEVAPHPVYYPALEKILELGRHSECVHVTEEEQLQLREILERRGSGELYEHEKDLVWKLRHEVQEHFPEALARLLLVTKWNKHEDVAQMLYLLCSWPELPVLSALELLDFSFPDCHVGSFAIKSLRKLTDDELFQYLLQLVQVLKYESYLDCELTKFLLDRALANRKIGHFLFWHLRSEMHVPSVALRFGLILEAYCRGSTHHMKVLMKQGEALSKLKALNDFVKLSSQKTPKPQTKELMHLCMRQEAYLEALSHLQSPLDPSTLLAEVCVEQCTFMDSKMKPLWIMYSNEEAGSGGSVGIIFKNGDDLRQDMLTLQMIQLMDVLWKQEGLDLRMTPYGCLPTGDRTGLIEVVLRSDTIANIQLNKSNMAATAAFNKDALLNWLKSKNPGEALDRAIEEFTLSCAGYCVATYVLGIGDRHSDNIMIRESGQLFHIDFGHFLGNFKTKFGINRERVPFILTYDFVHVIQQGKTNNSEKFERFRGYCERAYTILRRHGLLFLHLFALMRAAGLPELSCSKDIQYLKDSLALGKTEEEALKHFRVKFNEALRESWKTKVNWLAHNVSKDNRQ

[6] = molecular target: Myosin light chain kinase, smooth muscle (Homo sapiens) (UniProt Q15746); assay: Inhibition of smMLCK conserved Lys1 (VWAGKFFK) in human PBMC at 0.1 uM
[7] = molecular target: T3, Serine/threonine-protein kinase ULK3 (Homo sapiens) (UniProt Q6PHR2); assay: Inhibition of ULK3 conserved Lys1 (EVVAIKCVAK) in human PBMC at 0.1 uM
T3 sequence (whole entry): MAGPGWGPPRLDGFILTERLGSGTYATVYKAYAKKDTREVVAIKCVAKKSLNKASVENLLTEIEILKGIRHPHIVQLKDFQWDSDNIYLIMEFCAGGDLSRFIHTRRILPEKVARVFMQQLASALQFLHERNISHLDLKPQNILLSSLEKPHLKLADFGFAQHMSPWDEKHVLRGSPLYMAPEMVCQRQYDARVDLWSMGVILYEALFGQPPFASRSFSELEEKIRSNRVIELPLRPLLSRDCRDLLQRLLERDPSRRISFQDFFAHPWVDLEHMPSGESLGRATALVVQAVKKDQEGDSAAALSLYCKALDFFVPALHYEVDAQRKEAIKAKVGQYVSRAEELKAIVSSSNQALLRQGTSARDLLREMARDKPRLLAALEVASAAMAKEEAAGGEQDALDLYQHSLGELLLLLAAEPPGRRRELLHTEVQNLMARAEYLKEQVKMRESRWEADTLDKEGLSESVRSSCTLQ

Work on CC(C)n1cc(-c2cc(-c3ccc(CN4CCOCC4)cc3)cnc2N)nn1 yielded an inhibition [1] of 30.9%, an inhibition [2] of 3.2% and an inhibition [3] of 22.1%. The inhibition [4] was 0.5%, the inhibition [5] was 0.5% and the inhibition [6] was 29.6%. It also gave an inhibition [7] of 20.3%.
